Earlier results in patent US8404715B2, “Methods and compositions using racemic, (R)-, and (S)-fexofenadine in combination with leukotriene inhibitors” (Sunovion Pharmaceuticals Inc., priority 1998, dated 2013).
Where two headings read alike, the source gives them in different places.

What was measured:
[1] = system: contractile activity of three leukotrienes; conditions: laboratory animals
[2] = system: contractile activity of three leukotrienes; conditions: humans
LTD4 [3] = conditions: in vivo
LTD4 [4] = conditions: in vivo; remark: listed apart in the source
[5] = in some patients
[6] = in vivo
LTD4 (leukotriene D4) = conditions: guinea pigs
[7] = system: nasal response to allergen challenge
[8] = system: leukotriene (LTH4, LTC4, LTD4, and LTE4) formation; conditions: in vitro
LTB4 formation = conditions: ex vivo, several species
[9] = system: leukotriene-dependent smooth muscle contractions; conditions: in vitro, guinea pig airways
[10] = system: leukotriene-dependent smooth muscle contractions; conditions: in vitro, human airways
[11] = 373 patients
[12] = in some patients; remark: listed apart in the source

## COc1cc(C(=O)NS(=O)(=O)c2ccccc2C)ccc1Cc1cn(C)c2ccc(NC(=O)OC3CCCC3)cc12 [zafirlukast, 4-(5-cyclopentyloxy-carbonylamino-1-methyl-indol-8-ylmethyl)-3-methoxy-N-o-tolylsulfonylbenzamide]
[1]
  contractile activity of three leukotrienes in conducting airway smooth muscle: antagonized
[2]
  contractile activity of three leukotrienes in conducting airway smooth muscle: antagonized
LTD4 [3]
  intradermal LTD4-induced increases in cutaneous vascular permeability: prevented
LTD4 [4]
  inhaled LTD4-induced influx of eosinophils into animal lungs: inhibited
[5]
  adverse effects reported: headache, infection, nausea, diarrhea, pain, asthenia, abdominal pain, dizziness, myalgia, fever, vomiting, SGPT elevation, and dyspepsia

## CC(C)(C)c1ccc(C(O)CCCN2CCC(C(O)(c3ccccc3)c3ccccc3)CC2)cc1 (stereo not shown) [Terfenadine]
[6]
  absorption: well absorbed
  metabolism: extensively metabolized
LTD4 (leukotriene D4)
  increase in airway resistance caused by LTD4: suppressed
[7]; in vivo
  early nasal response to allergen challenge: partially inhibits
  influx of eosinophils into nasal secretions: without affecting
  subsequent reactivity to a challenge with methacholine: partially inhibits
[7]; relative to the placebo, differences did not achieve statistical significance
  levels of tryptase, prostaglandin D2 and leukotriene C4: tended to decrease

## CC(c1cc2ccccc2s1)N(O)C(N)=O (racemic) [zileuton, (±)-1-(1-Benso[b]thien-2-ylethyl)-1-hydroxyurea]
[8]
  leukotriene (LTH4, LTC4, LTD4, and LTE4) formation: inhibit
LTB4 formation
  LTB4 formation: inhibitor
[9]
  leukotriene-dependent smooth muscle contractions: inhibits
[10]
  leukotriene-dependent smooth muscle contractions: inhibits
[11]; 400 mg
  efficacy: failed to do so
[11]; 600 mg four times daily
  efficacy: required to provide efficacy
[12]
  adverse effects reported: headache, pain, asthenia, dyspepsia, nausea, and myalgia
